Laboratory results taken from PubChem BioAssay (NCI).
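Grown in 96-well plates, cells were treated for 48 hours with each compound at five concentrations. Insufficient inhibition: endpoint recorded as highest concentration tested. Abbreviation: GI50, concentration required for 50% inhibition of growth. At the TGI there is no net growth.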

Tests used:
Test in all cases: NCI anticancer screen, dose series, 48 h
HOP-92 NSCLC = tested on: HOP-92 NSCLC
HL-60(TB) leukemia = tested on: HL-60(TB) leukemia
HCT-15 colon = tested on: HCT-15 colon
SR leukemia = tested on: SR leukemia
CAKI-1 renal = tested on: CAKI-1 renal
BT-549 breast = tested on: BT-549 breast
MALME-3M melanoma = tested on: MALME-3M melanoma
SW-620 colon = tested on: SW-620 colon
SK-OV-3 ovarian = tested on: SK-OV-3 ovarian
SK-MEL-5 melanoma = tested on: SK-MEL-5 melanoma
NCI/ADR-RES ovarian = tested on: NCI/ADR-RES ovarian
HS 578T breast = tested on: HS 578T breast
NCI-H522 lung = tested on: NCI-H522 lung
MDA-MB-231 breast = tested on: MDA-MB-231 breast
RXF 393 renal = tested on: RXF 393 renal
UACC-62 melanoma = tested on: UACC-62 melanoma
K-562 leukemia = tested on: K-562 leukemia
EKVX NSCLC = tested on: EKVX NSCLC
COLO 205 colon = tested on: COLO 205 colon
KM12 colon = tested on: KM12 colon
SF-268 CNS = tested on: SF-268 CNS
LOX IMVI melanoma = tested on: LOX IMVI melanoma
MOLT-4 leukemia = tested on: MOLT-4 leukemia
M14 melanoma = tested on: M14 melanoma
ACHN renal = tested on: ACHN renal
DU-145 prostate = tested on: DU-145 prostate
SK-MEL-28 melanoma = tested on: SK-MEL-28 melanoma
UO-31 renal = tested on: UO-31 renal
HCC-2998 colon = tested on: HCC-2998 colon
SK-MEL-2 melanoma = tested on: SK-MEL-2 melanoma
OVCAR-8 ovarian = tested on: OVCAR-8 ovarian
NCI-H23 lung = tested on: NCI-H23 lung
HOP-62 NSCLC = tested on: HOP-62 NSCLC
A549 NSCLC = tested on: A549 NSCLC
786-0 renal = tested on: 786-0 renal
OVCAR-3 ovarian = tested on: OVCAR-3 ovarian
IGROV1 ovarian = tested on: IGROV1 ovarian
PC-3 prostate = tested on: PC-3 prostate
MCF7 breast = tested on: MCF7 breast
OVCAR-5 ovarian = tested on: OVCAR-5 ovarian
SF-539 CNS = tested on: SF-539 CNS
NCI-H460 lung = tested on: NCI-H460 lung
TK-10 renal = tested on: TK-10 renal
SF-295 CNS = tested on: SF-295 CNS
U251 CNS = tested on: U251 CNS
SN12C renal = tested on: SN12C renal
OVCAR-4 ovarian = tested on: OVCAR-4 ovarian
MDA-MB-435 = tested on: MDA-MB-435
HT29 colon = tested on: HT29 colon
RPMI-8226 leukemia = tested on: RPMI-8226 leukemia
HCT-116 colon = tested on: HCT-116 colon
A498 renal = tested on: A498 renal
CCRF-CEM leukemia = tested on: CCRF-CEM leukemia
T-47D breast = tested on: T-47D breast
UACC-257 melanoma = tested on: UACC-257 melanoma
NCI-H226 lung = tested on: NCI-H226 lung
SNB-19 CNS = tested on: SNB-19 CNS
SNB-75 CNS = tested on: SNB-75 CNS

`CC(=O)Oc1ccccc1C(=O)Nc1cc(C(C)C)ccc1C` showed a GI50 (HOP-92 NSCLC) of 2540 nM, a TGI (HOP-92 NSCLC) of 8.4 µM and a GI50 (HL-60(TB) leukemia) of 4.66 µM. For the same molecule, the TGI (HL-60(TB) leukemia) was 38.3 µM, the GI50 (HCT-15 colon) was 4.13 µM and the TGI (HCT-15 colon) was 16.3 µM. For the same molecule, the GI50 (SR leukemia) was 3.56 µM, the TGI (SR leukemia) was 30.9 µM and the GI50 (CAKI-1 renal) was 4.5 µM. For the same molecule, the TGI (CAKI-1 renal) was 27.9 µM, the GI50 (BT-549 breast) was 2630 nM and the TGI (BT-549 breast) was 8.34 µM. The GI50 (MALME-3M melanoma) was 2970 nM, the TGI (MALME-3M melanoma) was 15.1 µM and the GI50 (SW-620 colon) was 9.34 µM. The TGI (SW-620 colon) was 28.5 µM, the GI50 (SK-OV-3 ovarian) was 5.88 µM and the TGI (SK-OV-3 ovarian) was 41.6 µM. It also gave a GI50 (SK-MEL-5 melanoma) of 2270 nM, a TGI (SK-MEL-5 melanoma) of 5.74 µM and a GI50 (NCI/ADR-RES ovarian) of 3.74 µM. It also gave a TGI (NCI/ADR-RES ovarian) of 24.8 µM, a GI50 (HS 578T breast) of 4.67 µM and a TGI (HS 578T breast) of 34.7 µM. It also gave a GI50 (NCI-H522 lung) of 2340 nM, a TGI (NCI-H522 lung) of 7.86 µM and a GI50 (MDA-MB-231 breast) of 9.92 µM. It also gave a TGI (MDA-MB-231 breast) of 50.4 µM, a GI50 (RXF 393 renal) of 2550 nM and a TGI (RXF 393 renal) of 9.78 µM. It also gave a GI50 (UACC-62 melanoma) of 2490 nM, a TGI (UACC-62 melanoma) of 7.59 µM and a GI50 (K-562 leukemia) of 3.8 µM. For the same molecule, the TGI (K-562 leukemia) was 56.5 µM, the GI50 (EKVX NSCLC) was 3.94 µM and the TGI (EKVX NSCLC) was 30 µM. The GI50 (COLO 205 colon) was 18.3 µM, the TGI (COLO 205 colon) was 36.2 µM and the GI50 (KM12 colon) was 4.61 µM. It also gave a TGI (KM12 colon) of 32.3 µM, a GI50 (SF-268 CNS) of 7.14 µM and a TGI (SF-268 CNS) of over 100 µM. The GI50 (LOX IMVI melanoma) was 3.94 µM, the TGI (LOX IMVI melanoma) was 15.2 µM and the GI50 (MOLT-4 leukemia) was 4.2 µM. The TGI (MOLT-4 leukemia) was 29.7 µM, the GI50 (M14 melanoma) was 5.31 µM and the TGI (M14 melanoma) was 22.4 µM. It also gave a GI50 (ACHN renal) of 4.43 µM, a TGI (ACHN renal) of 51.1 µM and a GI50 (DU-145 prostate) of 8.38 µM. The TGI (DU-145 prostate) was over 100 µM, the GI50 (SK-MEL-28 melanoma) was 3.93 µM and the TGI (SK-MEL-28 melanoma) was 20.6 µM. For the same molecule, the GI50 (UO-31 renal) was 2930 nM, the TGI (UO-31 renal) was 11.7 µM and the GI50 (HCC-2998 colon) was 4.62 µM. It also gave a TGI (HCC-2998 colon) of 20 µM, a GI50 (SK-MEL-2 melanoma) of 3.1 µM and a TGI (SK-MEL-2 melanoma) of 12.2 µM. For the same molecule, the GI50 (OVCAR-8 ovarian) was 4.9 µM, the TGI (OVCAR-8 ovarian) was over 100 µM and the GI50 (NCI-H23 lung) was 2710 nM. For the same molecule, the TGI (NCI-H23 lung) was 9.84 µM, the GI50 (HOP-62 NSCLC) was 11.2 µM and the TGI (HOP-62 NSCLC) was 44.9 µM. It also gave a GI50 (A549 NSCLC) of 5.01 µM, a TGI (A549 NSCLC) of over 100 µM and a GI50 (786-0 renal) of 5.92 µM. The TGI (786-0 renal) was 26.6 µM, the GI50 (OVCAR-3 ovarian) was 4.38 µM and the TGI (OVCAR-3 ovarian) was over 100 µM. The GI50 (IGROV1 ovarian) was 4.44 µM, the TGI (IGROV1 ovarian) was 45.7 µM and the GI50 (PC-3 prostate) was 4.31 µM. The TGI (PC-3 prostate) was 56.8 µM, the GI50 (MCF7 breast) was 3.83 µM and the TGI (MCF7 breast) was 42.2 µM. The GI50 (OVCAR-5 ovarian) was 20.4 µM, the TGI (OVCAR-5 ovarian) was over 100 µM and the GI50 (SF-539 CNS) was 4.61 µM. The TGI (SF-539 CNS) was 19 µM, the GI50 (NCI-H460 lung) was 3.99 µM and the TGI (NCI-H460 lung) was over 100 µM. The GI50 (TK-10 renal) was 2960 nM, the TGI (TK-10 renal) was 12.8 µM and the GI50 (SF-295 CNS) was 4.46 µM. The TGI (SF-295 CNS) was 18.8 µM, the GI50 (U251 CNS) was 4.07 µM and the TGI (U251 CNS) was 28.5 µM. It also gave a GI50 (SN12C renal) of 3.73 µM, a TGI (SN12C renal) of 20.7 µM and a GI50 (OVCAR-4 ovarian) of 3.44 µM. The TGI (OVCAR-4 ovarian) was over 100 µM, the GI50 (MDA-MB-435) was 4.08 µM and the TGI (MDA-MB-435) was 23.4 µM. It also gave a GI50 (HT29 colon) of 29.8 µM, a TGI (HT29 colon) of over 100 µM and a GI50 (RPMI-8226 leukemia) of 3.9 µM. For the same molecule, the TGI (RPMI-8226 leukemia) was over 100 µM, the GI50 (HCT-116 colon) was 4.49 µM and the TGI (HCT-116 colon) was 16.7 µM. It also gave a GI50 (A498 renal) of 5.22 µM, a TGI (A498 renal) of 33.8 µM and a GI50 (CCRF-CEM leukemia) of 6.19 µM. The TGI (CCRF-CEM leukemia) was over 100 µM, the GI50 (T-47D breast) was 2620 nM and the TGI (T-47D breast) was over 100 µM. It also gave a GI50 (UACC-257 melanoma) of 4.33 µM, a TGI (UACC-257 melanoma) of 33 µM and a GI50 (NCI-H226 lung) of 2550 nM. For the same molecule, the TGI (NCI-H226 lung) was 10.4 µM, the GI50 (SNB-19 CNS) was 3.52 µM and the TGI (SNB-19 CNS) was 23.1 µM. For the same molecule, the GI50 (SNB-75 CNS) was 4.09 µM and the TGI (SNB-75 CNS) was 27.6 µM.
